Measurements from US11666600B2, “Methods for culturing and/or differentiating hematopoietic stem cells into progenitors and uses thereof” (HEMA-QUEBEC, priority 2015, dated 2023).

Assays:
[1] = test system: Human CB CD34+-enriched cells; assay: Culture of CB CD34+-enriched hematopoietic stem cells in conditions favoring self-renewal; format: cell-based; settings: for Percentage of phenotype CD34+ / Percentage of phenotype CD34+/CD38− / Percentage of phenotype CD34+/CD38−/CD45RA− / Percentage of phenotype CD34+/CD45RA− / Percentage of phenotype CD38− / Percentage of phenotype CD45RA−: 14 days
Description: Human cord blood (CB) was collected after obtaining written informed consent from donors, following our institutional Research Ethics Committee guidelines. Mononuclear cells (MNCs) were first separated over a Ficoll-Hypaque™ density gradient (GE Healthcare), then cryopreserved at −180° C. in Cryostor CS10™ medium ([…] Technologies). Thawed MNCs from six to eight CB were pooled before CD34 isolation. CB CD34+ cells were enriched by positive selection using the EasySep™ CD34 enrichment kit, according to the manufacturer's instructions ([…] Technologies).
Cultures were maintained in a humidified atmosphere with 5% CO2 at 37° C. or 39° C., as indicated in the Examples. Cells were diluted at 500 000 cells/mL with fresh medium every 3 to 4 days.
Cellular counts and viability were determined by adding Solution 18 (Acridine Orange and DAPI solution, ChemomMetec) and using NucleoCounter™ NC-250 for detection (ChemomMetec).
For cells expanded in conditions favoring self-renewal, surface markers were detected using the following antibodies: CD34-PE, CD45RA-FITC, and CD38-BV421. All antibodies were purchased from BD Biosciences, except for CD34-PE which was purchased from Immunotech. Labeling of aldehyde dehydrogenase (ALDH)-positive cells was performed using the ALDEFLUOR™ Kit ([…] Technologies), according to the manufacturer's instructions. 7AAD was used as a viability dye. All samples were analyzed on a FACS-Cy Flow ML system (Sysmex), and raw data were analyzed with FCS Express 5 Flow Research Edition software from at least 15 000 viable cell events acquired for each sample.
Cellular counts and viability were determined as described in Example 6.5.

[2] = test system: CD34+/CD45RA− mobilized peripheral blood cells; settings: Fares et al., 2014; cited from earlier work
[3] = 37° C. + PIC 35 nM, ACF + CC110
[4] = 37° C. + PIC 35 nM, ACF + CC110 (Table 5)
[5] = 37° C. + PIC 35 nM, ACF + HM (Table 5)
[6] = 37° C. + PIC 35 nM, SFEM + CC110
[7] = 37° C. + PIC 35 nM, SFEM II + CC110
[8] = 37° C. + PIC 35 nM, SFEM II + HM
[9] = 39° C. + PIC 35 nM, ACF + CC110
[10] = 39° C. + PIC 35 nM, ACF + CC110 (Table 5)
[11] = 39° C. + PIC 35 nM, ACF + HM (Table 5)
[12] = 39° C. + PIC 35 nM, SFEM + CC110
[13] = 39° C. + PIC 35 nM, SFEM II + CC110
[14] = 39° C. + PIC 35 nM, SFEM II + HM

Cl.Cn1nnc(-c2ccc3c(c2)[nH]c2nc(Cc4ccccc4)nc(N[C@H]4CC[C@H](N)CC4)c23)n1 [PIC, (1r,4r)-N1-(2-benzyl-7-(2-methyl-2H-tetrazol-5-yl)-9H-pyrimido[4,5-b]indol-4-yl)cyclohexane-1,4-diamine hydrochloride]
combined use of mild hyperthermia and PIC on expansion of CD34+/ALDH^Bright cells ([1]; 39° C. + PIC 35 nM, 21 days, ACF + HM, FIG. 29): synergistic expansion | Percentage of phenotype CD34+ [1, 3]: 48.9% | Percentage of phenotype CD34+/CD38− [1, 3]: 30.3% | Percentage of phenotype CD34+/CD38−/CD45RA− [1, 3]: 10% | Percentage of phenotype CD34+/CD45RA− [1, 3]: 16.36% | Percentage of phenotype CD38− [1, 3]: 14.8% | Percentage of phenotype CD45RA− [1, 3]: 59.2% | Percentage of phenotype CD34+ [1, 4]: 50.98% | Percentage of phenotype CD34+/CD45RA− [1, 4]: 11.83% | Percentage of phenotype CD45RA− [1, 4]: 76.09% | Percentage of phenotype CD34+ ([1]; 37° C. + PIC 35 nM, ACF + HM): 51.5% | Percentage of phenotype CD34+/CD38− ([1]; 37° C. + PIC 35 nM, ACF + HM): 32.4% | Percentage of phenotype CD34+/CD38−/CD45RA− ([1]; 37° C. + PIC 35 nM, ACF + HM): 14.7% | Percentage of phenotype CD34+/CD45RA− ([1]; 37° C. + PIC 35 nM, ACF + HM): 22.4% | Percentage of phenotype CD38− ([1]; 37° C. + PIC 35 nM, ACF + HM): 12.05% | Percentage of phenotype CD45RA− ([1]; 37° C. + PIC 35 nM, ACF + HM): 53.4% | Percentage of phenotype CD34+ [1, 5]: 44.62% | Percentage of phenotype CD34+/CD45RA− [1, 5]: 7.67% | Percentage of phenotype CD45RA− [1, 5]: 77.44% | Percentage of phenotype CD34+ [1, 6]: 42.68% | Percentage of phenotype CD34+/CD45RA− [1, 6]: 6.96% | Percentage of phenotype CD45RA− [1, 6]: 78.72% | Percentage of phenotype CD34+ ([1]; 37° C. + PIC 35 nM, SFEM + HM): 37.4% | Percentage of phenotype CD34+/CD45RA− ([1]; 37° C. + PIC 35 nM, SFEM + HM): 6.66% | Percentage of phenotype CD45RA− ([1]; 37° C. + PIC 35 nM, SFEM + HM): 75.74% | Percentage of phenotype CD34+ [1, 7]: 33.38% | Percentage of phenotype CD34+/CD45RA− [1, 7]: 6.09% | Percentage of phenotype CD45RA− [1, 7]: 77.73% | Percentage of phenotype CD34+ [1, 8]: 30.82% | Percentage of phenotype CD34+/CD45RA− [1, 8]: 6.11% | Percentage of phenotype CD45RA− [1, 8]: 77.27% | Percentage of phenotype CD34+ [1, 9]: 43.7% | Percentage of phenotype CD34+/CD38− [1, 9]: 24.2% | Percentage of phenotype CD34+/CD38−/CD45RA− [1, 9]: 14.1% | Percentage of phenotype CD34+/CD45RA− [1, 9]: 23.05% | Percentage of phenotype CD38− [1, 9]: 14.45% | Percentage of phenotype CD45RA− [1, 9]: 40.85% | Percentage of phenotype CD34+ [1, 10]: 43.73% | Percentage of phenotype CD34+/CD45RA− [1, 10]: 18.73% | Percentage of phenotype CD45RA− [1, 10]: 59.72% | Percentage of phenotype CD34+ ([1]; 39° C. + PIC 35 nM, ACF + HM): 40.95% | Percentage of phenotype CD34+/CD38− ([1]; 39° C. + PIC 35 nM, ACF + HM): 22.9% | Percentage of phenotype CD34+/CD38−/CD45RA− ([1]; 39° C. + PIC 35 nM, ACF + HM): 15.7% | Percentage of phenotype CD34+/CD45RA− ([1]; 39° C. + PIC 35 nM, ACF + HM): 24.8% | Percentage of phenotype CD38− ([1]; 39° C. + PIC 35 nM, ACF + HM): 12% | Percentage of phenotype CD45RA− ([1]; 39° C. + PIC 35 nM, ACF + HM): 35.2% | Percentage of phenotype CD34+ [1, 11]: 44.82% | Percentage of phenotype CD34+/CD45RA− [1, 11]: 17.68% | Percentage of phenotype CD45RA− [1, 11]: 59.67% | Percentage of phenotype CD34+ [1, 12]: 45.36% | Percentage of phenotype CD34+/CD45RA− [1, 12]: 12.23% | Percentage of phenotype CD45RA− [1, 12]: 70.13% | Percentage of phenotype CD34+ ([1]; 39° C. + PIC 35 nM, SFEM + HM): 41.95% | Percentage of phenotype CD34+/CD45RA− ([1]; 39° C. + PIC 35 nM, SFEM + HM): 12.39% | Percentage of phenotype CD45RA− ([1]; 39° C. + PIC 35 nM, SFEM + HM): 69.88% | Percentage of phenotype CD34+ [1, 13]: 37.9% | Percentage of phenotype CD34+/CD45RA− [1, 13]: 15.03% | Percentage of phenotype CD45RA− [1, 13]: 63.9% | Percentage of phenotype CD34+ [1, 14]: 37.56% | Percentage of phenotype CD34+/CD45RA− [1, 14]: 15.27% | Percentage of phenotype CD45RA− [1, 14]: 63.45% | expansion of CD34+/CD45RA− mobilized peripheral blood cells (enriched in LT-HSCs) [2]: stimulate expansion
